From patent US20230176063A1, “PHOTOREACTIVE AND CLEAVABLE PROBES FOR TAGGING BIOMOLECULES” (Academia Sinica, priority 2020, published 2023)

Test system: nucleolin
Test: photoselective tagging of nucleolin using azo probe
Type: cell-based
Conditions: fixed U2OS cells
Protocol: Nucleolin is a protein found in the nucleolus of eukaryotic cells and involved in the synthesis of ribosomes. Azo-probe 1 was conjugated to a secondary antibody by using BCN-NHS (CAS# 1516551-46-4) as additional linker between Azo-probe 1 and secondary antibody. A sample of U2OS cells was grown on a glass-bottom chamber slide and fixed with 2.4% PFA. The antibody conjugated with Azo-probe 1 was applied to the sample stained with anti-nucleolin antibody. The sample was exposed to 780 nm two-photon irradiation (200mW, 200 µs/pixel) to photocrosslink the light activated warhead to the antibody and subsequently incubated with 1 M sodium dithionite at room temperature for over 16 h to remove non-crosslinked probes. Neutravidin conjugated to Alexa Fluor 647 dye was added and the sample assayed for the Alexa Fluor 647. Alexa Fluor 647 is a bright, far-red-fluorescent dye with excitation ideally suited for the 594 nm or 633 nm laser lines. Results are shown in the top panel of FIG. 12B. A close-up view is shown in the top right side of FIG. 12B. […] A side view is shown in the bottom right of FIG. 12B.

SMILES: O=C(CCCC[C@@H]1SC[C@@H]2NC(=O)N[C@@H]21)N[C@@H](Cc1cn(CCOCCOCCOCCNC(=O)c2ccc(C(=O)c3ccccc3)cc2)nn1)C(=O)NCCc1ccc(O)c(/N=N/c2ccc(C(=O)ON3C(=O)CCC3=O)cc2)c1 [Azo-probe 1]
- Alexa Fluor 647 (Neutravidin) staining of tagged nucleolin (probe conjugated to secondary antibody via BCN-NHS, 780 nm two-photon irradiation (200mW, 200 µs/pixel), 1 M sodium dithionite over 16 h): characteristic nucleoli shape is observed
- Alexa Fluor 647 (Neutravidin) staining of tagged nucleolin, control region (treated the same but not exposed to photoactivating light): No significant staining was observed
